Measurements published in US20220127255A1, “HERBICIDAL COMPOUNDS” (SYNGENTA CROP PROTECTION AG, priority 2019, published 2022).
Structures can show the parent of a compound that is named as a salt. Where two headings read alike, the source gives them in different places.

How the values were obtained:
Assay in all cases: Post-emergence efficacy, glasshouse spray test
Assay type in all cases: in vivo
[1] = system: Amaranthus palmeri (AMAPA); conditions: 312 h, read-out: Control of weed species AMAPA after post-emergence application (100=total damage to plant; 0=no damage to plant)
Experimental: (§1) Seeds of a variety of test species were sown in standard soil in pots. After cultivation for 14 days (post-emergence) under controlled conditions in a glasshouse (at 24/16° C., day/night; 14 hours light; 65% humidity), the plants were sprayed with an aqueous spray solution derived from the dissolution of the technical active ingredient formula (I) in a small amount of acetone and a special solvent and emulsifier mixture referred to as IF50 (11.12% Emulsogen EL360 TM+44.44% N-methylpyrrolidone+44.44% Dowanol DPM glycol ether), to create a 50 g/l solution which was then diluted to required concentration using 0.25% or 1% Empicol ESC70 (Sodium lauryl ether sulphate)+1% ammonium sulphate as diluent.
(§2) The test plants were then grown in a glasshouse under controlled conditions (at 24/16° C., day/night; 14 hours light; 65% humidity) and watered twice daily. After 13 days the test was evaluated (100=total damage to plant; 0=no damage to plant).
(§3) Ipomoea hederacea (IPOHE), Euphorbia heterophylla (EPHHL), Chenopodium album (CHEAL), Amaranthus palmeri (AMAPA), Lolium perenne (LOLPE), Digitaria sanguinalis (DIGSA), Eleusine indica (ELEIN), Echinochloa crus-galli (ECHCG), Setaria faberi (SETFA)

[2] = system: Chenopodium album (CHEAL); conditions: 312 h, read-out: Control of weed species CHEAL after post-emergence application (100=total damage to plant; 0=no damage to plant)
Experimental: as §1, §2, §3

[3] = system: Digitaria sanguinalis (DIGSA); conditions: 312 h, read-out: Control of weed species DIGSA after post-emergence application (100=total damage to plant; 0=no damage to plant)
Experimental: as §1, §2, §3

[4] = system: Echinochloa crus-galli (ECHCG); conditions: 312 h, read-out: Control of weed species ECHCG after post-emergence application (100=total damage to plant; 0=no damage to plant)
Experimental: as §1, §2, §3

Eleusine indica (ELEIN) = conditions: 312 h, read-out: Control of weed species ELEIN after post-emergence application (100=total damage to plant; 0=no damage to plant)
Experimental: as §1, §2, §3

Lolium perenne (LOLPE) = conditions: 312 h, read-out: Control of weed species LOLPE after post-emergence application (100=total damage to plant; 0=no damage to plant)
Experimental: as §1, §2, §3

Setaria faberi (SETFA) = conditions: 312 h, read-out: Control of weed species SETFA after post-emergence application (100=total damage to plant; 0=no damage to plant)
Experimental: as §1, §2, §3

[5] = system: Euphorbia heterophylla (EPHHL); conditions: 312 h, read-out: Control of weed species EPHHL after post-emergence application (100=total damage to plant; 0=no damage to plant)
Experimental: as §1, §2, §3

[6] = system: Ipomoea hederacea (IPOHE); conditions: 312 h, read-out: Control of weed species IPOHE after post-emergence application (100=total damage to plant; 0=no damage to plant)
Experimental: as §1, §2, §3

[7] = 500 g/Ha, evaluated after 13 days
[8] = 130 g/Ha, evaluated after 13 days

SMILES | pest or weed control at 500 g/ha [1, 7] [%] | pest or weed control at 500 g/ha [2, 7] [%] | pest or weed control at 500 g/ha [3, 7] [%] | pest or weed control at 500 g/ha [4, 7] [%] | pest or weed control at 500 g/ha (Eleusine indica (ELEIN); [7]) [%] | pest or weed control at 500 g/ha (Lolium perenne (LOLPE); [7]) [%] | pest or weed control at 500 g/ha (Setaria faberi (SETFA); [7]) [%] | pest or weed control at 500 g/ha [5, 7] [%] | pest or weed control at 500 g/ha [6, 7] [%] | further results
Cc1nnc(NC(=O)C[n+]2ccc(-c3ncccn3)cn2)s1 [Compound A3] | 50 | 30 | 0 | 10 | 0 | 0 | 0 | – | – | –
O=C(C[n+]1ccc(-c2ncccn2)cn1)Nc1nccs1 [Compound A4] | 70 | 60 | 10 | 0 | 80 | 0 | 20 | 100 | 10 | –
O=C(C[n+]1ccc(-c2ncccn2)cn1)Nc1nncs1 [Compound A5] | 100 | 30 | 70 | 50 | 70 | 0 | 20 | 20 | 20 | –
Cc1cc(O)c(C(=O)C[n+]2ccc(-c3ncccn3)cn2)c(=O)o1 [Compound A2, 4-hydroxy-6-methyl-3-[2-(4-pyrimidin-2-ylpyridazin-1-ium-1-yl)acetyl]pyran-2-one trifluoroacetate] | 90 | 0 | 30 | 20 | 70 | 10 | 20 | 70 | 10 | –
O=C1NC(=O)C(CC[n+]2ccc(-c3ncccn3)cn2)S1 (stereo not drawn) [Compound A1, 5-[2-(4-pyrimidin-2-ylpyridazin-1-ium-1-yl)ethyl]thiazolidine-2,4-dione trifluoroacetate] | – | – | – | – | – | – | – | – | – | pest or weed control at 500 g/ha [1]: 90%; pest or weed control at 500 g/ha [2]: 30%; pest or weed control at 500 g/ha [3]: 60%; pest or weed control at 500 g/ha [4]: 50%; pest or weed control at 500 g/ha (Eleusine indica (ELEIN)): 70%; pest or weed control at 500 g/ha [5]: 50%; pest or weed control at 500 g/ha [6]: 50%; pest or weed control at 500 g/ha (Lolium perenne (LOLPE)): 40%; pest or weed control at 500 g/ha (Setaria faberi (SETFA)): 60%
O=S(=O)(CC[n+]1ccc(-c2ncccn2)cn1)c1cnn[nH]1 [Compound A8, 4-pyrimidin-2-yl-1-[2-(1H-triazol-5-ylsulfonyl)ethyl]pyridazin-1-ium 2,2,2-trifluoroacetate] | – | – | – | – | – | – | – | – | – | pest or weed control at 130 g/ha [1, 8]: 60%; pest or weed control at 130 g/ha [2, 8]: 0%; pest or weed control at 130 g/ha [4, 8]: 40%; pest or weed control at 130 g/ha (Eleusine indica (ELEIN); [8]): 50%; pest or weed control at 130 g/ha [5, 8]: 70%; pest or weed control at 130 g/ha [6, 8]: 20%; pest or weed control at 130 g/ha (Lolium perenne (LOLPE); [8]): 0%; pest or weed control at 130 g/ha (Setaria faberi (SETFA); [8]): 50%
Oc1cc(C[n+]2ccc(-c3ncccn3)cn2)on1 [Compound A9, 5-[(4-pyrimidin-2-ylpyridazin-1-ium-1-yl)methyl]isoxazol-3-ol 2,2,2-trifluoroacetate] | 20 | 40 | 40 | 30 | 20 | 10 | 20 | 30 | 20 | –
O=C(C[n+]1ccc(-c2ncccn2)cn1)Nc1nnn[n-]1 [Compound A7] | 90 | 90 | 30 | 20 | 30 | 10 | 50 | 30 | 30 | –
Cn1nnnc1NC(=O)C[n+]1ccc(-c2ncccn2)cn1 [Compound A6] | 90 | 90 | 30 | 30 | 20 | 0 | 30 | 80 | 40 | –
